6 compounds from patent US20110082157A1, “Piperidinylamino-Thieno [2,3-D] Pyrimidine Compounds” (priority 2004, published 2011) can be followed below.

Where two headings read alike, the source gives them in different places.

Data set [1] deals with T1, D4 (Homo sapiens, UniProt P21917).
T1 sequence (P21917 1-419): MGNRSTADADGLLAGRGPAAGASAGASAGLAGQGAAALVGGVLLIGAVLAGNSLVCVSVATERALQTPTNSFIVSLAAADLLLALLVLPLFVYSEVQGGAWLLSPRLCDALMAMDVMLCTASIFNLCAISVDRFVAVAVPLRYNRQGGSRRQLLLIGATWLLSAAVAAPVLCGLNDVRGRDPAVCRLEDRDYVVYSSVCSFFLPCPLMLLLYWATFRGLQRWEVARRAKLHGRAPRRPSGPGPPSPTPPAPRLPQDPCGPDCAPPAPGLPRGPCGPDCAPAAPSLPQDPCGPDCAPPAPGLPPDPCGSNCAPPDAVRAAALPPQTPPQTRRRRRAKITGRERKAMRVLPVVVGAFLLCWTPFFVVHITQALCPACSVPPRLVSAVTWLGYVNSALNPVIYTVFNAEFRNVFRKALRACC
The data set is described as follows: D4 binding (Ki).

Data set [2] is described as follows: HLM T1/2. Particulars: human, liver microsomes.
Data set [3] addresses 5HT2B (Homo sapiens, UniProt P41595). The data set can be described thus: Functional activity IC50 (5HT2B antagonist). The class given is cell-based.
The target of data set [4] is hERG (Homo sapiens, UniProt Q12809). The data set can be described thus: hERG % inhibition at 1 uM. On the technique in general: Block of hERG is tested as a sign of cardiac risk.
hERG, sequence (Q12809 whole entry): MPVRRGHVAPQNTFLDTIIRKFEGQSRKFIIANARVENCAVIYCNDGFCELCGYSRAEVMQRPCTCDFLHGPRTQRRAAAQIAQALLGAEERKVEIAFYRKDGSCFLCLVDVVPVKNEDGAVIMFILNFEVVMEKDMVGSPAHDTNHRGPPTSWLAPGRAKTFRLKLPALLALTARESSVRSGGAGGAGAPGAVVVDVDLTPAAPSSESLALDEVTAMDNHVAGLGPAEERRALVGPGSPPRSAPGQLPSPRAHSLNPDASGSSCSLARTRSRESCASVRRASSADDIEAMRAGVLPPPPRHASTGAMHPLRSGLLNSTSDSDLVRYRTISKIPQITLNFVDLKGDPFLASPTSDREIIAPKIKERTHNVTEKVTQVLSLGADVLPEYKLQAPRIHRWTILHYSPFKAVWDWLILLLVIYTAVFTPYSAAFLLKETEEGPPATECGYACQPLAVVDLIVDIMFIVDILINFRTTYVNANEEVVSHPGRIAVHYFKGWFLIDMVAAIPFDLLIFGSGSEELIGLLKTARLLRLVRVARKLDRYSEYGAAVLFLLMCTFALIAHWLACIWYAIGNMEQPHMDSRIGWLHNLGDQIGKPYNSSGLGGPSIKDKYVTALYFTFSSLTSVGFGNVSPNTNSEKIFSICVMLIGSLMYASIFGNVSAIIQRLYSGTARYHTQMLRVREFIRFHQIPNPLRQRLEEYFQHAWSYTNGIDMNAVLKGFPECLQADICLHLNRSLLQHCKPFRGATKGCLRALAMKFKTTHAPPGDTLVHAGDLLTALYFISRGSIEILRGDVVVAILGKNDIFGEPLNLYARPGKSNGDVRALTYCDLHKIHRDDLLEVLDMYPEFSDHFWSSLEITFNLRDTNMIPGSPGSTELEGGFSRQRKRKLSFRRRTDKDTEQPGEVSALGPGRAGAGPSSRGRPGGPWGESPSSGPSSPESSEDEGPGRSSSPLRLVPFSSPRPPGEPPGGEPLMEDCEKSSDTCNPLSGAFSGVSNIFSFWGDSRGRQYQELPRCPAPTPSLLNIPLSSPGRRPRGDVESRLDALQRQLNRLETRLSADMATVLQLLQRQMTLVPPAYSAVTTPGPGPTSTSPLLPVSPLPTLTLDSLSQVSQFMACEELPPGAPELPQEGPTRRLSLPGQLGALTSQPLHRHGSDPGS
Data set [5] is described as follows: AMES Test. The class given is cell-based.
For data set [6], the target named is T2, 5HT1A (Homo sapiens, UniProt P08908).
T2 sequence (P08908 1-422): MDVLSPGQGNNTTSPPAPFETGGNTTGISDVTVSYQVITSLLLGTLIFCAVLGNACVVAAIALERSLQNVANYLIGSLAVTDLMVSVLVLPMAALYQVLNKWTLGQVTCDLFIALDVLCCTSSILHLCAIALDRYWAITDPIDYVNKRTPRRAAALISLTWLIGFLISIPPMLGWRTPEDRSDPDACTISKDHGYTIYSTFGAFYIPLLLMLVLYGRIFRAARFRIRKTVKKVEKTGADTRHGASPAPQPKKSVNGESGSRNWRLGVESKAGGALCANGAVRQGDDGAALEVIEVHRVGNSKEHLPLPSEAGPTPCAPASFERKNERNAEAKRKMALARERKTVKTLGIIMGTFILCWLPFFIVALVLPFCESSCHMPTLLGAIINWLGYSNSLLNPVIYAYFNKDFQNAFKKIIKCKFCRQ
The data set is described as follows: 5HT1A binding (Ki).

The target in data set [7] is T3, D4.4 (Homo sapiens, UniProt P21917).
T3 sequence (P21917 1-419): T1 sequence (P21917 1-419)
The data set is described as follows: D4.4 binding (Ki).

Data set [8] addresses D2S (Homo sapiens, UniProt P14416). The data set can be described thus: D2S binding (Ki).
Data set [9] is described as follows: Rat pK. Particulars: in vivo; for bioavailability: read-out: Rat pK: % F.
A short description of data set [10]: % Protein Binding. Format: in vitro ADME.
Data set [11] has as its system IP3. The data set can be described thus: IC50 (IP3). Format: cell-based.
The mark [12] stands for this setting: iv, read-out: Rat pK: T1/2 (iv).
The mark [13] stands for this setting: po, read-out: Rat pK: T1/2 (po).

D2S, sequence (P14416 1-414 isoform P14416-2): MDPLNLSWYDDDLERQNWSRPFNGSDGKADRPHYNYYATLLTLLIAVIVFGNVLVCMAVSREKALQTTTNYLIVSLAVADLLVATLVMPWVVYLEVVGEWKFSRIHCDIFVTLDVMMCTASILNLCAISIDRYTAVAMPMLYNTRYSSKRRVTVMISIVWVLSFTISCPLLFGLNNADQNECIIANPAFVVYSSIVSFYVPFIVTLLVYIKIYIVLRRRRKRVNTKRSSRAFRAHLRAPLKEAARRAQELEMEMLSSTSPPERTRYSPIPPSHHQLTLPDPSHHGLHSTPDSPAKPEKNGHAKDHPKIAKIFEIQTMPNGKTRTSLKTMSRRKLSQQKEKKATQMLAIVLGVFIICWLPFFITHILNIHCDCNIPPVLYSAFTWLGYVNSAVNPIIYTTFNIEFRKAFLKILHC
5HT2B, sequence (P41595 whole entry, species assumed): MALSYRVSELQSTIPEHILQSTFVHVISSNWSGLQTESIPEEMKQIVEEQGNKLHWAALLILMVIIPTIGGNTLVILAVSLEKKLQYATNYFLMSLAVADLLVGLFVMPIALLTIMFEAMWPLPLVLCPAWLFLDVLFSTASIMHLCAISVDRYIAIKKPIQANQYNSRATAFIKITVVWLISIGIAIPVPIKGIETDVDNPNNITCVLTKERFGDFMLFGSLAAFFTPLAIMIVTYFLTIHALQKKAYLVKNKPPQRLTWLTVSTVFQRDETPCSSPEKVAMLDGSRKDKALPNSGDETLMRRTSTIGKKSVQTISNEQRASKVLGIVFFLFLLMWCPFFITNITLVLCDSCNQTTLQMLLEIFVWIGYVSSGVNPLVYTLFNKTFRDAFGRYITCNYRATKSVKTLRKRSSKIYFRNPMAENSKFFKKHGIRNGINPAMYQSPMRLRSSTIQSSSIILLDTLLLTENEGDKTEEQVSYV

Consider `CN(C)C(=O)c1cccc(CN2CCC(Nc3ncnc4sc(Cl)cc34)CC2)c1` [Example B57, 3-((4-(6-chlorothieno[2,3-d]pyrimidin-4-ylamino)piperidin-1-yl)methyl)-N,N-dimethylbenzamide, monomaleate], for which, in data set [1] (read-out: Ki (D4)), the Ki (commonly the dissociation constant of the complex between target and ligand, obtained from inhibition or displacement) came out at 540 nM. In [2], this compound returned a half-life of 24 min.

Consider `CNC(=O)c1cccc(CN2CCC(Nc3ncnc4sc(Cl)cc34)CC2)c1` [Example B55, 3-((4-(6-chlorothieno [2,3-d]pyrimidin-4-ylamino)piperidin-1-yl)methyl)-N-methylbenzamide, monomaleate], for which the Ki in data set [1] was 330 nM. Moreover, the half-life in [2] came out at 34 min.

On to `N#Cc1cc(CN2CCC(Nc3ncnc4sc(Cl)cc34)CC2)ccc1F` [Example B50, 5-((4-(6-chlorothieno [2,3-d]pyrimidin-4-ylamino)piperidin-1-yl)methyl)-2-fluorobenzonitrile, monomaleate], for which, in data set [3], half-maximal inhibition (IC50) required 27 nM. Besides, the half-life in data set [2] was determined as 28 min; in data set [9] (setting [12]), 37.2 min; in data set [9] (setting [13]), 53.4 min. Besides, the “hERG (% Inhibition at 1 uM)” value in [4] turned out to be 23.7%. Further, the “AMES Test” value in [5] is given as “Negative”. For the same compound, the Ki in data set [6] was 100 nM; in [7], 5.4 nM; in [8] (NA: Not Active), 670 nM. Besides, the bioavailability in data set [9] (po) came to 22.6%.

As for `Cc1c(Cl)sc2ncnc(NC3CCN(Cc4cccc(F)c4)CC3)c12.O=C(O)/C=C\C(=O)O` [Example B38, N-(1-(3-fluorobenzyl)piperidin-4-yl)-6-chloro-5-methylthieno[2,3-d]pyrimidin-4-amine, monomaleate], the IC50 (in general, the concentration that gives 50% inhibition) in [3] is 560 nM; in [11], 2.27 nM. Also, in data set [10], the fraction unbound (as a rule, the share of the substance not bound to proteins or other matrix) was 0.062. Also, the “hERG (% Inhibition at 1 uM)” value in [4] worked out at 78.1%. This compound registered a Ki in data set [8] (NA: Not Active) of 170 nM. For the same compound, the half-life amounted to 24 min in data set [9] (setting [12]) and 54 min in data set [9] (setting [13]). Further, the bioavailability in [9] (po) turned out to be 18.2%.

Regarding `CS(=O)(=O)c1cccc(CN2CCC(Nc3ncnc4sc(Cl)cc34)CC2)c1` [Example B58, N-(1-(3-(methylsulfonyl)benzyl)piperidin-4-yl)-6-chlorothieno[2,3-d]pyrimidin-4-amine, monomaleate], the Ki was 430 nM in data set [1] (read-out: Ki (D4)) and over 10000 nM in data set [8]. Besides, in data set [2], the half-life stood at 27 min.

`O=S(=O)(c1cccc(CN2CCC(Nc3ncnc4sc(Cl)cc34)CC2)c1)C(F)(F)F` [Example B56, N-(1-(3-(trifluoromethylsulfonyl)benzyl)piperidin-4-yl)-6-chlorothieno[2,3-d] pyrimidin-4-amine, monomaleate]: the inhibition constant Ki in [1] (read-out: Ki (D4)) is 180 nM; in [8], 3100 nM. In [2], this compound registered a half-life of under 15 min.
